Assay results from patent US12552813B2, “Heterocyclic substituted pyrimidopyran compound and use thereof” (Medshine Discovery Inc., priority 2023, dated 2026).

Tests used:
Type in all cases: cell-based
[1] = test system: KRAS^G12D mutant tumor cell line AsPC-1; experiment: Antiproliferative effects of compounds in tumor cell line AsPC-1 (CellTiter-Glo 3D); settings: Homo sapiens, ASPC1, Experimental Example 1, 7,000 cells per well, ULA plate, 120 h incubation
Protocol: The experiment studies the antiproliferative effects of compounds by detecting the effects of the compounds on in vitro cell activity of the KRAS^G12D mutant tumor cell line AsPC-1.
The cell line was AsPC-1. The tumor type was pancreatic cancer. The cell line was cultured by adherent growth using RPMI 1640+10% FBS. • Ultra Low Cluster-96-well plate (Corning-7007) • Greiner CELLSTAR 96-well plate (#655090) • Promega CellTiter-Glo 3D luminescence cell activity assay kit (Promega-G9683) • 2104-10 EnVision reader, PerkinElmer • RPMI 1640, DMEM, PBS (phosphate buffer), FBS (fetal bovine serum), Antibiotic-antimycotic, L-glutamine, and DMSO (dimethyl sulfoxide)
The tumor cell line was incubated in an incubator at 37° C., 5% CO2 under the culture conditions shown by the culture method. Regular passage was conducted, and the cells in the logarithmic growth phase were taken for seeding.
The cell line was AsPC-1, with a density of 7,000 cells (per well).
A cell suspension is added at a density of 135 μL per well to a ULA culture plate, and the same volume of cell-free medium is added to a blank control plate.
The ULA culture plate was centrifuged at room temperature for 10 min at 1,000 rpm immediately after seeding. Caution: Always handle follow-up actions with care after centrifuging to avoid unnecessary shaking. […]
The luminous signals were detected on a 2104 EnVision reader. […]

[2] = test system: KRAS^G12D mutant AsPC-1 cells; experiment: AsPC-1 cell proliferation assay (3D-CTG method); settings: Homo sapiens, ASPC1, 168 h, Experimental Example 2, 2,000 cells per well, 7 days incubation
Protocol: 1) ASPC-1 cells were seeded in a transparent 96-well cell culture plate, at a density of 195 μL of cell suspension per well containing 2,000 cells.
2) The compound to be tested was diluted with 100% DMSO to 10 mM as the 1st concentration and then diluted 5 times by a pipette to the 8th concentration, i.e. from 10 mM to 0.13 M. 2 μL of the gradient-diluted compound was added to 48 μL of cell medium for secondary dilution. After mixed, 5 μL of the secondary-diluted compound was added to the corresponding wells of the cell plate containing 195 μL of cells. The cell plate was put into a carbon dioxide incubator and incubated for 7 days.
3) After incubation, 100 μL of cell supernatant was discarded and 3D-CTG was added at a density of 60 μL per well. The cells were shaken and incubated at room temperature and 200 rpm for 20 min, and incubated in an incubator at room temperature for 1 h.
4) 100 μL of supernatant was pipetted from the well plate and transferred to a 96-well black plate with a clear bottom, and the luminescence was read in the BMG.
The original data was converted into the inhibition rate using equation Inhibition %=(Ave_H−Sample)/(Ave_H−Ave_L), and the IC50 value was obtained by curve fitting through four parameters (log(inhibitor) vs. response—Variable slope mode in GraphPad Prism). • H well: Reading of DM well • L well: Reading of Medium 5.

[3] = test system: KRAS^G12V mutant H727 cells; experiment: H727 cell proliferation assay (3D-CTG method); settings: Homo sapiens, NCI-H727, 168 h, 2,000 cells per well, 7 days incubation
Protocol: H727 cells from ATCC; RPMI-1640 medium from ATCC; fetal bovine serum from Ausgenex; CellTiter-Glo® 3D assay kit (3D-CTG) from Promega; and CellCarrier-96 Spheroid ULA/CS from PE.
5) The aforementioned cells were seeded in a transparent 96-well cell culture plate, at a density of 195 μL of cell suspension per well containing 2,000 cells.
6) The compound to be tested was diluted with 100% DMSO to 10 mM as the 1st concentration and then diluted 5 times by a pipette to the 8th concentration, i.e. from 10 mM to 0.13 μM. 2 μL of the gradient-diluted compound was added to 48 μL of cell medium for secondary dilution. After mixed, 5 μL of the secondary-diluted compound was added to the corresponding wells of the cell plate containing 195 μL of cells. […]
7) After incubation, 100 μL of cell supernatant was discarded and 3D-CTG was added at a density of 60 μL per well. […] 8) 100 μL of supernatant was pipetted from the well plate and transferred to a 96-well black plate with a clear bottom, and the luminescence was read in the BMG.
The original data was converted into the inhibition rate using equation Inhibition %=(Ave_H−Sample)/(Ave_H−Ave_L), and the IC50 value was obtained by curve fitting through four parameters (log(inhibitor) vs. response—Variable slope mode in GraphPad Prism). • H well: Reading of DMSO well • L well: Reading of Medium 5. […]

[4] = test system: SW620 (KRAS G12V mutant) cell line; experiment: SW620 cell in vitro proliferation assay; settings: Homo sapiens, SW-620, 240 h, 1,000 cells per well, 10 days incubation, 3D CellTiter-Glo
Protocol: RPMI1640 medium, penicillin/streptomycin antibiotics from Gibco, and fetal bovine serum from Hyclone. 3D CellTiter-Glo (cell viability chemiluminescent assay) reagent from Promega. SW620 (KRAS G12V mutant) cell line from ATCC, Envision Multilabel analyzer (PerkinElmer).
The cells were seeded in a 96-well, ultra-low adsorption U-plate, at a density of 80 μL of cell suspension per well containing 1,000 cells. The cell plate was incubated overnight in a carbon dioxide incubator.
The compound to be tested was diluted using a multi-channel pipette by 5 times for 8 concentrations, that was, from 2 mM to 25.6 nM, and double replicates were set up. 78 μL of medium was added to an intermediate plate. Then the gradient-diluted compound was transferred to the intermediate plate at a density of 2 μL per well according to the corresponding position, mixed and transferred at a density of 20 μL per well to a cell plate. […] Another cell plate was prepared, and the signal value read on the day of addition was taken as the maximum value (the Max value in the equation below) to be used in data analysis.
A cell viability chemiluminescent assay reagent was added to the cell plate at a density of 100 μL per well and incubated at room temperature for 30 min to stabilize luminous signals. The readings are taken using a multilabel analyzer. […]

C=C1CN2CCC[C@]2(COc2nc3c(c(N4CCCn5nc(C(=O)N(C)C)cc5C4)n2)CO[C@@H](c2c(F)c(N)cc(C#CC)c2C(F)(F)F)C3)C1 (single isomer, unassigned) [Compound 5A]
IC50 [1]: 6.1 nM | IC50 [2]: 11.8 nM | IC50 [3]: 45.9 nM | IC50 [4]: 27.5 nM
